Experimental data: patent publication US20220265706A1, “PHARMACEUTICAL COMPOSITION CONTAINING COMPLEXES OF ALLOFERON AND ZINC” (priority 2019, published 2022)

Assays:
Interleukin 18 = Interleukin 18 (IL-18) induction in mouse blood serum; format: in vivo; conditions: BALB/C mice, subcutaneous single dose 1 mg alloferon/kg; serum 36 hours after administration
Experimental: Six samples were tested: • 1. Alloferon (Allokin-alfa, Lyophilisate for Solution for Subcutaneous Administration)—a reference product, • 2. Composition 1, • 3. Composition 2, • 4. […] 0.9% sodium chloride solution—control.
(§1) Samples 1, 2, 3, and 5 contained alloferon at the concentration of 1 mg/mL. The alloferon solution in Samples 1 and 5 was produced by dissolving the contents of an Allokin-alfa ampoule (1 mg of alloferon) in 1 mL of 0.9% sodium chloride solution. […] To determine the background content of IFN-γ and IL-18 in the subject animals' blood serum, a 0.9% sodium chloride solution was used.
(§2) The experiments enrolled BALB/C mice, females, weighing 16 to 22 grams, 18 weeks of age, divided into 6 groups of 15 individuals each. The samples were administered subcutaneously in a single dose of 1 mg of alloferon per 1 kg laboratory animal body weight. Sample 5 components were administered separately, one 15 minutes after the other.
In case of the control group, the confidence interval was calculated based on measurements of the same sample dilutions. For the experimental groups, the confidence interval was calculated based on three samples from three animals for each measuring point.

Interferon Gamma = assay: Interferon gamma (IFN-γ) induction in mouse blood serum, solid phase immunoassay; format: in vivo; conditions: BALB/C mice, subcutaneous single dose 1 mg alloferon/kg; serum 3 hours after administration
Experimental: Furthermore, cytokine induction caused by using both components (alloferon and the zinc salt), where administered to a body separately in time, were determined. Six samples were tested: • 1. Alloferon (Allokin-alfa, Lyophilisate for Solution for Subcutaneous Administration)—a reference product, • 2. Composition 1, • 3. Composition 2, • 4. […] 0.9% sodium chloride solution—control.
as §1, §2

[1] = test system: Herpes Simplex Virus Type 2 (HSV-2) Strain G (ATCC VR-734); assay: Protective action in a model of herpetic infection in mice; format: in vivo, White outbred mice; conditions: HSV-2 vaginal infection, 1.25 mg/kg (Acyclovir 50 mg/kg); for N14, number of animal deaths in a group on the 14th day after infection: 20 mice per group; for N14, number of animal deaths in a group on the 14th day after infection / M, mortality rate: i.p. once a day for 3 days; for M, mortality rate / IP, index of protection: 14 days follow-up; for IP, index of protection: relative to control mortality 60.0%
Experimental: The developed compositions were assessed for their protective action on the basis of a herpetic infection model. The following reference products were used: 1/Allokin-alfa, Lyophilisate for Solution for Subcutaneous Administration, a medicinal product used to treat genital herpes, containing 1 mg of alloferon per ampoule; 2/Acyclovir, a medicinal product used in the conventional herpes therapy.
White outbred mice (females) weighing 16 to 20 g were received from Rappolovo Nursery (Leningrad Oblast) and maintained on a standard diet under controlled vivarium conditions. The animals for the experimental groups were selected on a random basis. The animals were divided into 5 groups of 20 animals each: four experimental groups in which the animals received injections of Composition 1, Composition 2, Allokin-alfa, and Acyclovir, respectively, and one control group in which the animals received injections of 0.9% sodium chloride solution.
The study was made with the use of Herpes Simplex Virus Type 2 (HSV-2) Strain G (ATCC VR-734). The infection was introduced vaginally. Vaginal epithelium was injured with the use of a vaginal smearing scarifier, after which the animals were infected with the virus at a dose of 1.7×10^5TCID50 in the amount of 30 mcL.
Allokin-alfa and Compositions 1 and 2 were administered to the animals intraperitoneally at a dose of 1.25 mg/kg once a day for 3 days after the infection introduction. Acyclovir was administered in accordance with the same scheme at a dose of 50 mg/kg. The control group received injections of 0.9% sodium chloride solution.
The animals were followed up for 14 days. Mortality in the control and experimental groups were recorded on a daily basis. Based on the data so obtained, mortality rates M (the ratio of animal deaths over 14 days to the total number of infected animals in a group) and the index of protection IP (the ratio between the difference of the control and experimental groups' mortality rates and the control group lethality rate) were calculated.

Molecule	Interleukin 18, after 36 hours (mg/mL of blood serum) (Interleukin 18)	Interferon Gamma, after 3 hours (mg/mL of blood serum) (Interferon Gamma)	N14, number of animal deaths in a group on the 14th day after infection [1]	M, mortality rate [1] [%]	IP, index of protection [1] [%]
CC(=O)[O-].CC(=O)[O-].[Zn+2] [Zinc acetate]	194 ± 12 mg/mL of blood serum	82 ± 8 mg/mL of blood serum	–	–	–
Nc1nc2c(ncn2COCCO)c(=O)[nH]1 [Acyclovir]	–	–	3	15.0	75.0
alloferon	360 ± 20 mg/mL of blood serum	95 ± 16 mg/mL of blood serum	4	20.0	66.7
